Measured values: patent US12286403B2, “Formulated and/or co-formulated liposome compositions containing IDO antagonist prodrugs useful in the treatment of cancer and methods thereof” (Nammi Therapeutics, Inc., priority 2019, dated 2025)

Molecular target: T1, IDO-1 (Homo sapiens, UniProt P14902)
T1 construct: expressed in transfected cells; host or cells: HEK293 (hIDO1-HEK293 recombinant cells)
Test: IDO-1 activity by kynurenine levels in hIDO1-HEK293 recombinant cells
Assay type: cell-based
Conditions: 10 uM, 24 hours
Protocol: IDO-1 activity was measured indirectly using kynurenine levels using the following protocols. Briefly, hIDO1-HEK293 recombinant cells were plated overnight. The following day the cells were left untreated or treated with 10 uM of ID3, ID3-SA or LNP-ID3-SA for twenty-four (24) hours. The IDO-1 activity was measured by indirect measurement of kynurenine levels by analyzing absorption at 480 nm using IDO1 Cellular Activity QuickDetect™ kit (PBSBioscience, San Diego, CA).

T1 sequence (P14902 whole entry): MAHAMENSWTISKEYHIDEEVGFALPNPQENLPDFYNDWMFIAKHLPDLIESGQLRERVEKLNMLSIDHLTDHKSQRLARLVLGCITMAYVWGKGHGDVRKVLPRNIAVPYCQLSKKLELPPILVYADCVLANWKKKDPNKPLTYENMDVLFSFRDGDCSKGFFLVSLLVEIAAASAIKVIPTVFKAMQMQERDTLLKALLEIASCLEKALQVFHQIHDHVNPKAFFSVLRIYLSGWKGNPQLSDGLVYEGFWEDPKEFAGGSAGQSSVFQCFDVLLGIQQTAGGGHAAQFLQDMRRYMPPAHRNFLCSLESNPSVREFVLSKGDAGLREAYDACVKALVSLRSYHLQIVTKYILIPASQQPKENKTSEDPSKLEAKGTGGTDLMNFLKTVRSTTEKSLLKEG

CCCCCCCCCCCCCCCCCC(=O)OCOC(=O)N(C(=O)[C@H](C)[C@H]1CC[C@@H](c2ccnc3ccc(F)cc32)CC1)c1ccc(Cl)cc1 [ID3-SA]
IDO-1 activity (kynurenine levels, absorption at 480 nm): inhibited IDO-1 activity
